Results: ChEMBL document CHEMBL1201862, “PubChem BioAssay data set” (2004)
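1) Cells in 96-well plates. 2) Compound, 48 h, 5 concentrations. 3) Linear interpolation between surrounding doses. 4) Unreached endpoint = highest concentration. At the GI50, growth is halved.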 The source made the active and inactive calls. Rule as the data show it: active = GI50 up to about 1.1 µM and inactive = higher.

Assays:
Assay in all cases: NCI tumour cell line growth inhibition, 48 h
CCRF-CEM = test system: CCRF-CEM
UO-31 = test system: UO-31
KM12 = test system: KM12
HT-29 = test system: HT-29
786-0 = test system: 786-0
PC-3 = test system: PC-3
A498 = test system: A498
HOP-62 = test system: HOP-62
BT-549 = test system: BT-549
OVCAR-4 = test system: OVCAR-4
Malme-3M = test system: Malme-3M
SK-MEL-2 = test system: SK-MEL-2
MDA-N = test system: MDA-N
K562 = test system: K562
OVCAR-5 = test system: OVCAR-5
SK-OV-3 = test system: SK-OV-3
DU-145 = test system: DU-145
SF-268 = test system: SF-268
RXF 393 = test system: RXF 393
SK-MEL-28 = test system: SK-MEL-28

Measured: GI50

Clc1ccc(-c2cn3c(nc4ccccc43)c(-c3ccccc3)n2)cc1
inactive: CCRF-CEM > 70.8 µM | UO-31 24.2 µM | KM12 > 57.5 µM | HT-29 10.8 µM | 786-0 9.35 µM | PC-3 18.7 µM | A498 23.9 µM | HOP-62 11.5 µM | BT-549 19.5 µM | OVCAR-4 5.85 µM | Malme-3M 23.1 µM | SK-MEL-2 14.1 µM | MDA-N 27.2 µM | K562 > 84.7 µM | OVCAR-5 > 38.9 µM | SK-OV-3 11.6 µM | DU-145 > 71.9 µM | SF-268 48 µM | RXF 393 15.6 µM | SK-MEL-28 39.8 µM

Cc1ccc(S(=O)(=O)CN2C(=O)C(c3ccccc3)(c3ccccc3)C23OC(c2ccc(Cl)cc2)=CC3=O)cc1 (stereo not given)
inactive: CCRF-CEM > 10 µM | UO-31 > 10 µM | KM12 > 10 µM | HT-29 > 10 µM | 786-0 > 10 µM | PC-3 4.07 µM | A498 > 10 µM | HOP-62 > 10 µM | BT-549 > 10 µM | OVCAR-4 > 10 µM | Malme-3M > 10 µM | SK-MEL-2 > 10 µM | MDA-N > 10 µM | K562 > 10 µM | OVCAR-5 > 10 µM | SK-OV-3 > 10 µM | DU-145 > 10 µM | SF-268 > 10 µM | RXF 393 > 10 µM | SK-MEL-28 > 10 µM

CN(Cc1c2ccccc2cc2ccccc12)S(=O)(=O)c1ccc(-c2c3nc(c(-c4ccc(S(=O)(=O)N(C)Cc5c6ccccc6cc6ccccc56)cc4)c4ccc([nH]4)c(-c4ccc(S(=O)(=O)N(C)Cc5c6ccccc6cc6ccccc56)cc4)c4nc(c(-c5ccc(S(=O)(=O)N(C)Cc6c7ccccc7cc7ccccc67)cc5)c5ccc2[nH]5)C=C4)C=C3)cc1
inactive: CCRF-CEM > 100 µM | UO-31 > 100 µM | KM12 > 100 µM | HT-29 > 100 µM | 786-0 53.1 µM | PC-3 > 100 µM | A498 > 100 µM | HOP-62 30.3 µM | BT-549 > 100 µM | OVCAR-4 > 100 µM | Malme-3M > 100 µM | SK-MEL-2 > 100 µM | MDA-N > 100 µM | K562 > 100 µM | OVCAR-5 > 100 µM | SK-OV-3 > 100 µM | DU-145 > 100 µM | SF-268 > 100 µM | RXF 393 42.1 µM | SK-MEL-28 > 100 µM
